Assays:
Assay type in all cases: physicochemical
[1] = Solubility test: ability of each solvent to dissolve at least 1 percent by weight at a process temperature near its boiling point (Example 1)
From the text: This example illustrates solvent mapping, testing and solubility region definition for a diacetylenic monomer for which new solvents and solubility information are desired, namely 2,4-hexadiyn-1,6-bis(ethylurea) and for which reliable solubility parameter information is not available. In this example, solubility points are mapped for each of a number of representative samples of a wide range of solvents of different chemical types and physicochemical characteristics, according to their solubility parameters. The solubility points of the representative solvents (filled squares) are mapped on a plot of hydrogen bonding (δH), on the Y-axis, versus polar parameters (δP), on the X-axis, generating a map such as that shown in FIG. 4. Also shown in FIG. 4 are solubility points for solvent systems comprising 25 percent by weight water/solvent mixtures (unfilled squares).
Each solvent is tested for its ability to dissolve at least 1 percent by weight 2,4-hexadiyn-1,6-bis(ethylurea) at a temperature not more than 5° C. above the boiling point of the solvent. Because the boiling points of the solvents tested vary widely, ranging from 56° C. to 189° C. the solvents are processed in batches at temperatures of 60, 75, 82, and 90° C., respectively. The process temperature desirably is not greater than 4 to 5° C. above a given solvent's boiling point.
Some exemplary solubility data obtainable for 2,4-hexadiyn-1,6-bis(ethylurea) from the above-described solubility test with the solvents indicated, are set forth in Table 1 below along with solubility parameter information for the solvents. Also included in Table 1 are data regarding the 25 percent by weight water/solvent mixtures.

[2] = Further solubility tests at 1, 4, 7 and 10 percent by weight, 90° C. water bath (Example 2)
Protocol: A 90° C. water bath is employed to maintain the solvent or solution temperature and results obtainable are tabulated in Table 2 below, solubility parameter information again being included to facilitate understanding of the data for acetone and water, for reference.

[3] = Room temperature solubilities in various solvent systems (Table 3); details: for Solubility: 20° C., material recrystallized from acetic acid
From the text: As is the case elsewhere herein, the acetone/water and ethanol/water solvent mixtures are given in weight-for-weight proportions in Table 3 and FIG. 10. It can be seen from Table 3 and FIG. 10 that some of the solvent systems displaying elevated solubility at higher temperatures, for example acetic acid and the several aqueous mixtures, have only limited solubility at room temperature.

[4] = Solubility in 1,1,3,3-tetramethyl urea at 90° C. in a closed vial; details: tetramethyl urea (TMU)
Protocol: 1,1,3,3tetramethyl urea, also called “tetramethyl urea” and sometimes referenced “TMU” can dissolve up to 7% weight 2,4-hexadiyn-1,6-bis(ethylurea) at a temperature of 90° C. in a closed vial.

[5] = solvent 1-Propanol, 90° C. water bath
[6] = solvent 2-Propanol (IPA), 90° C. water bath
[7] = solvent 25% Water/Acetone, 90° C. water bath
[8] = solvent 25% Water/DMF, 90° C. water bath
[9] = solvent 25% Water/DMSO, 90° C. water bath
[10] = solvent 25% Water/Ethanol, 90° C. water bath
[11] = solvent 25% Water/IPA, 90° C. water bath
[12] = solvent 25% water/acetic acid, 90° C. water bath
[13] = solvent 25% water/formic acid, 90° C. water bath
[14] = solvent Acetic acid, 90° C. water bath
[15] = solvent Acetone, 90° C. water bath
[16] = solvent DMSO, 90° C. water bath
[17] = solvent Ethanol, 90° C. water bath
[18] = solvent Ethylene Glycol, 90° C. water bath
[19] = solvent Formic acid, 90° C. water bath
[20] = solvent Methanol, 90° C. water bath
[21] = solvent Pyridine, 90° C. water bath
[22] = solvent Water, 90° C. water bath

CCNC(=O)NCC#CC#CCNC(=O)NCC [KE, 2,4-hexadiyn-1,6-bis(ethylurea)]
amount dissolved ([1]; N,N-dimethyl formamide (DMF)): at least 1 percent by weight | amount dissolved ([1]; acetic acid): at least 1 percent by weight | amount dissolved ([1]; dimethyl sulfoxide (DMSO)): at least 1 percent by weight | amount dissolved ([1]; ethanol (EtOH)): at least 1 percent by weight | amount dissolved ([1]; ethylene glycol): at least 1 percent by weight | amount solvated by pyridine ([1]; pyridine): about 1 % by weight | KE soluble at 1% wt? ([1]; solvent Acrylonitrile, process T 75 °C): No | KE soluble at 1% wt? ([1]; solvent Benzene, process T 75 °C): No | KE soluble at 1% wt? ([1]; solvent Ethanol, process T 75 °C): Yes | KE soluble at 1% wt? ([1]; solvent Ethyl acetate, process T 75 °C): No | KE soluble at 1% wt? ([1]; solvent THF, process T 60 °C): No | KE soluble at 1% wt? ([1]; solvent n-Hexane, process T 75 °C): No | amount dissolved ([1]; the water/solvent mixtures (25 percent by weight water), all): at least 1 percent by weight | Solubility ([2]; 25% water/ethanol mixture (1 part water, 3 parts ethanol by weight)): at least 4 percent by weight | Solubility ([2]; dimethyl sulfoxide, 90° C. water bath): > 10% | Solubility ([2]; formic acid, 90° C. water bath): > 10% | Solubility ([2]; pure ethanol): less than 4 percent by weight | Is KE soluble at 1%? [2, 5]: Yes | Is KE soluble at 4%? [2, 5]: No | Is KE soluble at 7%? [2, 5]: No | Is KE soluble at 10%? [2, 5]: No | Is KE soluble at 1%? [2, 6]: Yes | Is KE soluble at 4%? [2, 6]: No | Is KE soluble at 7%? [2, 6]: No | Is KE soluble at 10%? [2, 6]: No | Is KE soluble at 1%? [2, 7]: Yes | Is KE soluble at 4%? [2, 7]: Yes | Is KE soluble at 7%? [2, 7]: No | Is KE soluble at 10%? [2, 7]: No | Is KE soluble at 1%? [2, 8]: Yes | Is KE soluble at 4%? [2, 8]: Yes | Is KE soluble at 7%? [2, 8]: Yes | Is KE soluble at 10%? [2, 8]: No | Is KE soluble at 1%? [2, 9]: Yes | Is KE soluble at 4%? [2, 9]: Yes | Is KE soluble at 7%? [2, 9]: No | Is KE soluble at 10%? [2, 9]: No | Is KE soluble at 1%? [2, 10]: Yes | Is KE soluble at 4%? [2, 10]: Yes | Is KE soluble at 7%? [2, 10]: No | Is KE soluble at 10%? [2, 10]: No | Is KE soluble at 1%? [2, 11]: Yes | Is KE soluble at 4%? [2, 11]: No | Is KE soluble at 7%? [2, 11]: No | Is KE soluble at 10%? [2, 11]: No | Is KE soluble at 1%? [2, 12]: Yes | Is KE soluble at 4%? [2, 12]: Yes | Is KE soluble at 7%? [2, 12]: Yes | Is KE soluble at 10%? [2, 12]: No | Is KE soluble at 1%? [2, 13]: Yes | Is KE soluble at 4%? [2, 13]: Yes | Is KE soluble at 7%? [2, 13]: Yes | Is KE soluble at 10%? [2, 13]: No | Is KE soluble at 1%? [2, 14]: Yes | Is KE soluble at 4%? [2, 14]: Yes | Is KE soluble at 7%? [2, 14]: Yes | Is KE soluble at 10%? [2, 14]: Yes | Is KE soluble at 1%? [2, 15]: No | Is KE soluble at 4%? [2, 15]: No | Is KE soluble at 7%? [2, 15]: No | Is KE soluble at 10%? [2, 15]: No | Is KE soluble at 1%? ([2]; solvent DMF, 90° C. water bath): Yes | Is KE soluble at 4%? ([2]; solvent DMF, 90° C. water bath): Yes | Is KE soluble at 7%? ([2]; solvent DMF, 90° C. water bath): Yes | Is KE soluble at 10%? ([2]; solvent DMF, 90° C. water bath): Yes | Is KE soluble at 1%? [2, 16]: Yes | Is KE soluble at 4%? [2, 16]: Yes | Is KE soluble at 7%? [2, 16]: Yes | Is KE soluble at 10%? [2, 16]: Yes | Is KE soluble at 1%? [2, 17]: Yes | Is KE soluble at 4%? [2, 17]: No | Is KE soluble at 7%? [2, 17]: No | Is KE soluble at 10%? [2, 17]: No | Is KE soluble at 1%? [2, 18]: Yes | Is KE soluble at 4%? [2, 18]: No | Is KE soluble at 7%? [2, 18]: No | Is KE soluble at 10%? [2, 18]: No | Is KE soluble at 1%? [2, 19]: Yes | Is KE soluble at 4%? [2, 19]: Yes | Is KE soluble at 7%? [2, 19]: Yes | Is KE soluble at 10%? [2, 19]: Yes | Is KE soluble at 1%? [2, 20]: Yes | Is KE soluble at 4%? [2, 20]: Yes | Is KE soluble at 7%? [2, 20]: No | Is KE soluble at 10%? [2, 20]: No | Is KE soluble at 1%? [2, 21]: Yes | Is KE soluble at 4%? [2, 21]: No | Is KE soluble at 7%? [2, 21]: No | Is KE soluble at 10%? [2, 21]: No | Is KE soluble at 1%? [2, 22]: No | Is KE soluble at 4%? [2, 22]: No | Is KE soluble at 7%? [2, 22]: No | Is KE soluble at 10%? [2, 22]: No | solubility in water ([2]; water): insoluble | Solubility ([2]; water and acetone combined (25% Water/Acetone)): at least 4 percent by weight | Solubility ([3]; Acetic acid): 0.6 wt. % of the Solution | Solubility ([3]; Acetone/water 4:1 (weight for weight)): 0.16 wt. % of the Solution | Solubility ([3]; DMF): 4 wt. % of the Solution | Solubility ([3]; DMSO): 4 wt. % of the Solution | Solubility ([3]; Dichloroacetic acid): 33 wt. % of the Solution | Solubility ([3]; Ethanol/water 4:1 (weight for weight)): 0.18 wt. % of the Solution | Solubility ([3]; Ethyl alcohol): 0.17 wt. % of the Solution | Solubility ([3]; Formic acid): 23 wt. % of the Solution | Solubility ([3]; Isopropyl alcohol): 0.09 wt. % of the Solution | Solubility ([3]; Methyl alcohol “MeOH”): 0.27 wt. % of the Solution | Solubility ([3]; Tetramethyl urea): 0.90 wt. % of the Solution | Solubility ([3]; Trifluoroaceticacetic acid): 30 wt. % of the Solution | amount solvated by formic acid ([3]; formic acid, room temperature): ~13 % by weight | amount dissolved by 1,1,3,3-tetramethyl urea [4]: up to 7 % weight
